In patent US6479435B1, “Diaryl ethers and processes for their preparation and herbicidal and desiccant compositions containing them” (ISK Americas Incorporated, priority 1997, dated 2002):

Key:
Format in all cases: in vivo
[1] = tested on: ivyleaf morningglory (Ipomoea hederacea, IPOHE); assay: Post-emerge greenhouse herbicide test, phytotoxicity rating; settings: 14 days after application; for phytotoxicity rating IPOHE: scale 0-100
Outline: (§1)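 Plants at the 2-3 leaf stage, sown 8-21 days earlier, were track-sprayed post-emergence with compound in acetone plus 0.25% v/v non-ionic surfactant at 63-1000 g ai/ha (187 l/ha). Damage was rated at 14 days on a 0-100 scale (0 none, 100 all plants dead), for both crop injury and weed control.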

[2] = tested on: sicklepod (Cassia obtusifolia, CASOB); assay: as above; settings: 14 days after application; for phytotoxicity rating CASOB: scale 0-100
Outline: as §1

[3] = tested on: Johnsongrass (Sorghum halepense, SORHA); assay: as above; settings: 14 days after application; for phytotoxicity rating SORHA: scale 0-100
Outline: as §1

[4] = tested on: lambsquarters (Chenopodium album, CHEAL); assay: as above; settings: 14 days after application; for phytotoxicity rating CHEAL: scale 0-100
Outline: as §1

[5] = tested on: redroot pigweed (Amaranthus retroflexus, AMARE); assay: as above; settings: 14 days after application; for phytotoxicity rating AMARE: scale 0-100
Outline: as §1

[6] = tested on: green foxtail (Setaria viridis, SETVI); assay: as above; settings: 14 days after application; for phytotoxicity rating SETVI: scale 0-100
Outline: as §1

[7] = tested on: barnyardgrass (Echinochloa crusgalli, ECHCG); assay: as above; settings: 14 days after application; for phytotoxicity rating ECHCG: scale 0-100
Outline: as §1

[8] = tested on: large crabgrass (Digitaria sanguinalis, DIGSA); assay: as above; settings: 14 days after application; for phytotoxicity rating DIGSA: scale 0-100
Outline: as §1

[9] = tested on: velvetleaf (Abutilon theophrasti, ABUTH); assay: as above; settings: 14 days after application; for phytotoxicity rating ABUTH: scale 0-100
Outline: as §1

[10] = tested on: upland rice (Oryza sp., var.Tebonnet, RICE); assay: Pre-emerge greenhouse test, crop damage rating; settings: 14 days after application, rating scale 0-100
Outline: (§2)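 Seeds sown in sandy loam one day before track-sprayer application of acetone solutions at 125–1000 g ai/ha (187 l/ha), then surface-watered to incorporate and bottom-watered. Injury scored visually at 14 days on a 0–100 scale (0 no damage, 100 complete death).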

[11] = tested on: field corn (Zea mays L., var. Dekalb 535, CORN); assay: Pre-emerge greenhouse test, crop damage rating; settings: 14 days after application, rating scale 0-100
Outline: as §2

[12] = tested on: ivyleaf morningglory (Ipomoea hederacea, IPOHE); assay: Pre-emerge greenhouse herbicide test, phytotoxicity rating; settings: 14 days after application, rating scale 0-100
Outline: as §2

[13] = tested on: sicklepod (Cassia obtusifolia, CASOB); assay: as above; settings: 14 days after application, rating scale 0-100
Outline: as §2

[14] = tested on: Johnsongrass (Sorghum halepense, SORHA); assay: as above; settings: 14 days after application, rating scale 0-100
Outline: as §2

[15] = tested on: lambsquarters (Chenopodium album, CHEAL); assay: as above; settings: 14 days after application, rating scale 0-100
Outline: as §2

[16] = tested on: redroot pigweed (Amaranthus retroflexus, AMARE); assay: as above; settings: 14 days after application, rating scale 0-100
Outline: as §2

[17] = tested on: common ragweed (Ambrosia artemisiifolia L., AMBEL); assay: as above; settings: 14 days after application, rating scale 0-100
Outline: as §2

[18] = tested on: green foxtail (Setaria viridis, SETVI); assay: as above; settings: 14 days after application, rating scale 0-100
Outline: as §2

[19] = tested on: barnyardgrass (Echinochloa crusgalli, ECHCG); assay: as above; settings: 14 days after application, rating scale 0-100
Outline: as §2

[20] = tested on: large crabgrass (Digitaria sanguinalis, DIGSA); assay: as above; settings: 14 days after application, rating scale 0-100
Outline: as §2

[21] = tested on: velvetleaf (Abutilon theophrasti, ABUTH); assay: as above; settings: 14 days after application, rating scale 0-100
Outline: as §2

[22] = tested on: soybean (Glycine max L., var. Pella 86, SOY); assay: Pre-emerge greenhouse test, crop damage rating; parameters: key to SOY crop damage rating: 0 = no damage, 100 = complete death of all plants; settings: 14 days after application, rating scale 0-100
Outline: as §2

[23] = tested on: soybean (Glycine max L., var. Pella 86, SOY); assay: Post-emerge greenhouse test, crop damage rating; parameters: key to crop damage rating SOY: 0-100 scale: 0 = no damage, 100 = complete death of all plants; settings: 14 days after application; for crop damage rating SOY: scale 0-100
Outline: as §1

[24] = tested on: common ragweed (Ambrosia artemisiifolia L., AMBEL); assay: Post-emerge greenhouse herbicide test, phytotoxicity rating; settings: 14 days after application; for phytotoxicity rating AMBEL: scale 0-100
Outline: as §1

[25] = tested on: upland rice (Oryza sp., var.Tebonnet, RICE); assay: Post-emerge greenhouse test, crop damage rating; settings: 14 days after application; for crop damage rating RICE: scale 0-100
Outline: as §1

[26] = tested on: field corn (Zea mays L., var. Dekalb 535, CORN); assay: Post-emerge greenhouse test, crop damage rating; settings: 14 days after application; for crop damage rating CORN: scale 0-100
Outline: as §1

SMILES: Cn1c(C(F)(F)F)nc(-c2cc(Oc3ncccc3[N+](=O)[O-])c(Cl)cc2F)c1Cl [Compound 2-1]
- IPOHE phytotoxicity rating (0-100) ([1]; 63 g al/ha): 60
- IPOHE phytotoxicity rating (0-100) ([1]; 500 g al/ha): 65
- CASOB phytotoxicity rating (0-100) ([2]; 63 g al/ha): 0
- CASOB phytotoxicity rating (0-100) ([2]; 500 g al/ha): 30
- SORHA phytotoxicity rating (0-100) ([3]; 63 g al/ha): 0
- SORHA phytotoxicity rating (0-100) ([3]; 500 g al/ha): 10
- CHEAL phytotoxicity rating (0-100) ([4]; 63 g al/ha): 80
- CHEAL phytotoxicity rating (0-100) ([4]; 500 g al/ha): 99
- AMARE phytotoxicity rating (0-100) ([5]; 63 g al/ha): 90
- AMARE phytotoxicity rating (0-100) ([5]; 500 g al/ha): 100
- SETVI phytotoxicity rating (0-100) ([6]; 63 g al/ha): 30
- SETVI phytotoxicity rating (0-100) ([6]; 500 g al/ha): 65
- ECHCG phytotoxicity rating (0-100) ([7]; 63 g al/ha): 0
- ECHCG phytotoxicity rating (0-100) ([7]; 500 g al/ha): 30
- DIGSA phytotoxicity rating (0-100) ([8]; 63 g al/ha): 0
- DIGSA phytotoxicity rating (0-100) ([8]; 500 g al/ha): 20
- ABUTH phytotoxicity rating (0-100) ([9]; 63 g al/ha): 40
- ABUTH phytotoxicity rating (0-100) ([9]; 500 g al/ha): 85
- crop damage rating RICE ([10]; 125 g ai/ha): 0
- crop damage rating RICE ([10]; 500 g ai/ha): 0
- crop damage rating CORN ([11]; 125 g ai/ha): 0
- crop damage rating CORN ([11]; 500 g ai/ha): 0
- phytotoxicity rating IPOHE ([12]; 125 g ai/ha): 10
- phytotoxicity rating IPOHE ([12]; 500 g ai/ha): 100
- phytotoxicity rating CASOB ([13]; 125 g ai/ha): 0
- phytotoxicity rating CASOB ([13]; 500 g ai/ha): 30
- phytotoxicity rating SORHA ([14]; 125 g ai/ha): 0
- phytotoxicity rating SORHA ([14]; 500 g ai/ha): 30
- phytotoxicity rating CHEAL ([15]; 125 g ai/ha): 60
- phytotoxicity rating CHEAL ([15]; 500 g ai/ha): 100
- phytotoxicity rating AMARE ([16]; 125 g ai/ha): 100
- phytotoxicity rating AMARE ([16]; 500 g ai/ha): 100
- phytotoxicity rating AMBEL ([17]; 125 g ai/ha): 0
- phytotoxicity rating AMBEL ([17]; 500 g ai/ha): 50
- phytotoxicity rating SETVI ([18]; 125 g ai/ha): 90
- phytotoxicity rating SETVI ([18]; 500 g ai/ha): 99
- phytotoxicity rating ECHCG ([19]; 125 g ai/ha): 0
- phytotoxicity rating ECHCG ([19]; 500 g ai/ha): 20
- phytotoxicity rating DIGSA ([20]; 125 g ai/ha): 0
- phytotoxicity rating DIGSA ([20]; 500 g ai/ha): 70
- phytotoxicity rating ABUTH ([21]; 125 g ai/ha): 0
- phytotoxicity rating ABUTH ([21]; 500 g ai/ha): 50
- crop damage rating SOY ([22]; 125 g ai/ha): 0
- crop damage rating SOY ([22]; 500 g ai/ha): 70
- SOY crop damage rating (0-100) ([23]; 63 g al/ha): 50
- SOY crop damage rating (0-100) ([23]; 500 g al/ha): 75
- AMBEL phytotoxicity rating (0-100) ([24]; 63 g al/ha): 10
- AMBEL phytotoxicity rating (0-100) ([24]; 500 g al/ha): 40
- RICE crop damage rating (0-100) ([25]; 63 g al/ha): 0
- RICE crop damage rating (0-100) ([25]; 500 g al/ha): 20
- CORN crop damage rating (0-100) ([26]; 63 g al/ha): 15
- CORN crop damage rating (0-100) ([26]; 500 g al/ha): 20

SMILES: COc1cc(Oc2cc(-n3c(=O)n4n(c3=S)CCCC4)c(F)cc2Cl)nc(OC)n1 [Compound 8-32]
- phytotoxicity rating IPOHE ([1]; rate 63 g ai/ha): 100
- phytotoxicity rating IPOHE ([1]; rate 500 g ai/ha): 100
- phytotoxicity rating CASOB ([2]; rate 63 g ai/ha): 10
- phytotoxicity rating CASOB ([2]; rate 500 g ai/ha): 100
- phytotoxicity rating SORHA ([3]; rate 63 g ai/ha): 0
- phytotoxicity rating SORHA ([3]; rate 500 g ai/ha): 20
- phytotoxicity rating CHEAL ([4]; rate 63 g ai/ha): 95
- phytotoxicity rating CHEAL ([4]; rate 500 g ai/ha): 100
- phytotoxicity rating AMARE ([5]; rate 63 g ai/ha): 90
- phytotoxicity rating AMARE ([5]; rate 500 g ai/ha): 100
- phytotoxicity rating SETVI ([6]; rate 63 g ai/ha): 10
- phytotoxicity rating SETVI ([6]; rate 500 g ai/ha): 40
- phytotoxicity rating ECHCG ([7]; rate 63 g ai/ha): 0
- phytotoxicity rating ECHCG ([7]; rate 500 g ai/ha): 10
- phytotoxicity rating DIGSA ([8]; rate 63 g ai/ha): 0
- phytotoxicity rating DIGSA ([8]; rate 500 g ai/ha): 0
- phytotoxicity rating ABUTH ([9]; rate 63 g ai/ha): 100
- phytotoxicity rating ABUTH ([9]; rate 500 g ai/ha): 100
- RICE crop damage rating ([10]; Rate 125 g al/ha): 0
- RICE crop damage rating ([10]; Rate 500 g al/ha): 40
- CORN crop damage rating ([11]; Rate 125 g al/ha): 0
- CORN crop damage rating ([11]; Rate 500 g al/ha): 10
- IPOHE phytotoxicity rating ([12]; Rate 125 g al/ha): 40
- IPOHE phytotoxicity rating ([12]; Rate 500 g al/ha): 90
- CASOB phytotoxicity rating ([13]; Rate 125 g al/ha): 30
- CASOB phytotoxicity rating ([13]; Rate 500 g al/ha): 80
- SORHA phytotoxicity rating ([14]; Rate 125 g al/ha): 10
- SORHA phytotoxicity rating ([14]; Rate 500 g al/ha): 30
- CHEAL phytotoxicity rating ([15]; Rate 125 g al/ha): 90
- CHEAL phytotoxicity rating ([15]; Rate 500 g al/ha): 100
- AMARE phytotoxicity rating ([16]; Rate 125 g al/ha): 50
- AMARE phytotoxicity rating ([16]; Rate 500 g al/ha): 100
- AMBEL phytotoxicity rating ([17]; Rate 125 g al/ha): 0
- AMBEL phytotoxicity rating ([17]; Rate 500 g al/ha): 50
- SETVI phytotoxicity rating ([18]; Rate 125 g al/ha): 10
- SETVI phytotoxicity rating ([18]; Rate 500 g al/ha): 100
- ECHCG phytotoxicity rating ([19]; Rate 125 g al/ha): 0
- ECHCG phytotoxicity rating ([19]; Rate 500 g al/ha): 20
- DIGSA phytotoxicity rating ([20]; Rate 125 g al/ha): 20
- DIGSA phytotoxicity rating ([20]; Rate 500 g al/ha): 90
- ABUTH phytotoxicity rating ([21]; Rate 125 g al/ha): 95
- ABUTH phytotoxicity rating ([21]; Rate 500 g al/ha): 100
- SOY crop damage rating ([22]; Rate 125 g al/ha): 0
- SOY crop damage rating ([22]; Rate 500 g al/ha): 0
- crop damage rating SOY ([23]; rate 63 g ai/ha): 30
- crop damage rating SOY ([23]; rate 500 g ai/ha): 80
- phytotoxicity rating AMBEL ([24]; rate 63 g ai/ha): 50
- phytotoxicity rating AMBEL ([24]; rate 500 g ai/ha): 90
- crop damage rating RICE ([25]; rate 63 g ai/ha): 0
- crop damage rating RICE ([25]; rate 500 g ai/ha): 10
- crop damage rating CORN ([26]; rate 63 g ai/ha): 5
- crop damage rating CORN ([26]; rate 500 g ai/ha): 5
